Reference: patent publication US10329270B2, “Heteroaryl compounds as BTK inhibitors and uses thereof” (Merck Patent GmbH, priority 2013, dated 2019)

What was measured:
[1] = test system: PBMC; assay: Assay B: Time Dependent PMBC IC50 Assay; assay type: cell-based
Protocol: Assay B: Time Dependent PMBC IC50 Assay
Compounds described by embodiments of the present invention were assayed using a time dependent PMBC assay. The data from the same is recorded in Table 2 within the column labeled: “Time Dependent PBMC Assay IC50.” These IC50 values are reported in ranges wherein: I<1 uM and II>1 uM.

[2] = target: T1, full-length human BTK (Homo sapiens, UniProt Q06187); assay: Assay A: BTK IC50 Enzyme Assay (microfluidic off-chip mobility shift kinase assay); assay type: biochemical; settings: full-length human BTK, kinKDR peptide substrate, incubated 90 min at 27 C; read-out: Assay A (Time Dependent BTK Enzyme Assay IC50)
T1 construct: 2.5× stocks of full-length human BTK (08-080); purchased CarnaBio USA, Inc., Natick, Mass; 08-080
T1 sequence (Q06187 whole entry): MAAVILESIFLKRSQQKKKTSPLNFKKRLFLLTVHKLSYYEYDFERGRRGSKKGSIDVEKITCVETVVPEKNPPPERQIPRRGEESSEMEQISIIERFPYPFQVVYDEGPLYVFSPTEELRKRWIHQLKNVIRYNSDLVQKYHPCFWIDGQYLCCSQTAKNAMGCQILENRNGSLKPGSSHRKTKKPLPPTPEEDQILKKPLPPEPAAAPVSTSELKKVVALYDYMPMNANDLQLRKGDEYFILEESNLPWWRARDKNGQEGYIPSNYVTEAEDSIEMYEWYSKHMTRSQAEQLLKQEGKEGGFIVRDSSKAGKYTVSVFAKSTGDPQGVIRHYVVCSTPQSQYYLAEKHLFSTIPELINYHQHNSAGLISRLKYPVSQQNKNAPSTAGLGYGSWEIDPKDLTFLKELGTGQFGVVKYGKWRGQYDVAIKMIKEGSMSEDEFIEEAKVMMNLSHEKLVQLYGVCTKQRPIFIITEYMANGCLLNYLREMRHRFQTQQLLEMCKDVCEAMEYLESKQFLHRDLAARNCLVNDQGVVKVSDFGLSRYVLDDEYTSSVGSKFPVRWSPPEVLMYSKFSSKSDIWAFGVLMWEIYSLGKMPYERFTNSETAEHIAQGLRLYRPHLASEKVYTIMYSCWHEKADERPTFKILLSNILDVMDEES
How it was run: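 Off-chip microfluidic mobility shift assay with full-length human BTK; phosphorylated and unphosphorylated peptide substrate were separated by charge/mass on a LabChip 3000.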

[3] = target: T2, BTK in human whole blood (Homo sapiens, UniProt Q06187); assay: Assay C: Time Dependent Human Whole Blood IC50 Assay; assay type: cell-based; settings: read-out: Assay C (Time Dependent Human Whole Blood BTK Enzyme Assay IC50)
T2 construct: endogenous in cells; host or cells: human whole blood
T2 sequence (Q06187 whole entry): as above
Protocol: Assay C: Time Dependent Human Whole Blood IC50 Assay
Compounds described by embodiments of the present invention were assayed using a human whole blood assay. The data from the same is recorded in Table 2 within the column labeled: “Time Dependent Human Whole Blood BTK Enzyme Assay IC50”.

| Compound | IC50 [2] [nM] | IC50 [3] [nM] | IC50 [1] [nM] |
| --- | --- | --- | --- |
| C=CC(=O)N1C[C@@H]2C[C@H]1CN2c1ccc(C(N)=O)c(Nc2ccc(CCN3CCCC3)cc2)n1 [Compound 9, 6-((1S,4S)-5-Acryloyl-2,5-diaza-bicyclo[2.2.1]hept-2-yl)-2-[4-(2-pyrrolidin-1-yl-ethyl)-phenylamino]-nicotinamide] | < 100 | < 100 | < 100 |
| C=CC(=O)N[C@H]1CCN(c2ccc(C(N)=O)c(Nc3ccc(C(=O)N4CCN(C)CC4)cc3)n2)C1 [Compound 11, (S)-6-(3-acrylamidopyrrolidin-1-yl)-2-((4-(4-methylpiperazine-1 carbonyl)phenyl)amino)nicotinamide] | < 100 | 100 to 1000 | < 100 |
| C=CC(=O)N1C2C=C(c3ccc(C(N)=O)c(Oc4ccc(Oc5ccccc5)cc4)n3)CC1CC2 (stereo not drawn) [Compound 65, 6-(8-Acryloyl-8-aza-bicyclo[3.2.1]oct-2-en-3-yl)-2-(4-phenoxy-phenoxy)-nicotinamide] | < 100 | 100 to 1000 | < 100 |

The next lines start with results.

| IC50 [2] [nM] | IC50 [3] [nM] | Compound | IC50 [1] [nM] |
| --- | --- | --- | --- |
| < 100 | < 100 | C=CC(=O)N[C@H]1CCN(c2ncc(C(N)=O)c(Nc3ccc(C(=O)NC(C)(C)C)cc3)n2)C1 [Compound 139, (S)-2-(3-acrylamidopyrrolidin-1-yl)-4-((4-(tert-butylcarbamoyl)phenyl)amino)pyrimidine-5-carboxamide] | < 100 |
| < 100 | 100 to 1000 | C=CC(=O)N[C@H]1CCN(c2nc(Nc3ccc(N4CCC(F)(F)CC4)cc3)c(C(N)=O)cc2F)C1 [Compound 180, 6-((S)-3-Acryloylamino-pyrrolidin-1-yl)-2-[4-(4,4-difluoro-piperidin-1-yl)-phenylamino]-5-fluoro-nicotinamide] | < 100 |
| < 100 | 100 to 1000 | C=CC(=O)NC1CN(c2ncc(C(N)=O)c(Oc3ccc(Oc4ccccc4)cc3)n2)C1 [Compound 174, 2-(3-Acryloylamino-azetidin-1-yl)-4-(4-phenoxy-phenoxy)-pyrimidine-5-carboxylic acid amide] | < 100 |
